Tests used:
[1] = biological target: yeast α-glucosidase (Yeast aG); type: biochemical; details: Embodiment 2, Table 2, single components
Text: (§1) Testing and comparing the inhibitive activity Max % and IC50 of the composition and a known diabetes drug A (α-glucosidase inhibitor) to rat α-glucosidase (abbreviated as Rat aG) and yeast α-glucosidase (abbreviated as Yeast aG), individually. IC50 means the concentration of the inhibitor to achieve 50% inhibition rate.
(§2) The present embodiment tests IC50 of adenine, 3-hydroxy-dl-proline, nicotinic acid, (3,6-dioxo-piperazin-2-yl)-acetic acid amide, 2-ethylhexyl heptanoate, and the diabetes drug A to Rat aG and Yeast aG, individually.

[2] = biological target: rat α-glucosidase (Rat aG); test: Test of IC50: inhibitive activity on rat α-glucosidase; type: biochemical; details: Embodiment 2, Table 2, single components
Text: as §1, §2

SMILES	Yeast aGI (IC50 to Yeast aG) [1]	Rat aGI (IC50 to Rat aG) [2]
Nc1ncnc2nc[nH]c12 [Adenine]	21.5 µg/mL	–
O=C(O)c1cccnc1 [Nicotinic acid]	517 µg/mL	67 µg/mL
CCCCCCC(=O)OCC(CC)CCCC (stereo not shown) [2-ethylhexyl heptanoate]	4.0 µg/mL	105 µg/mL
NC(=O)CC1NC(=O)CNC1=O (stereo not shown) [(3,6-dioxo-piperazin-2-yl)-acetic acid amide]	4.0 µg/mL	105 µg/mL

— patent US10159668B2, “Pharmaceutical composition for inhibiting alpha-glucosidase” (Tamkang University, priority 2017, dated 2018)
